Target: T1, Interleukin-1 receptor-associated kinase 4 (Homo sapiens, UniProt Q9NWZ3)
T1 sequence (Q9NWZ3 whole entry): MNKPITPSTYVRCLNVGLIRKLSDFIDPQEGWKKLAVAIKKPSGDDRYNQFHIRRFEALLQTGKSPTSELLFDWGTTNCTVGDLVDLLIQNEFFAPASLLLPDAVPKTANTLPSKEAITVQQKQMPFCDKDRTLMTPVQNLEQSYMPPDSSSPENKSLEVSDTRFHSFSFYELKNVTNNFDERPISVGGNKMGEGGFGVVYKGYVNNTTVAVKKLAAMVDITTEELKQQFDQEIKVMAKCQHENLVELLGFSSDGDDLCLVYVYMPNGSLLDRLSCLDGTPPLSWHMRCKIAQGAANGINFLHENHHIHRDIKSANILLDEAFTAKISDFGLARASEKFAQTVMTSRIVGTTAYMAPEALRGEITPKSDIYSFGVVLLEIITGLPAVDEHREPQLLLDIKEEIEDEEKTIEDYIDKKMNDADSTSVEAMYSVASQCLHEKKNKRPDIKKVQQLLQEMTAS
Experiment: IRAK4 Inhibition Assay
Procedure: The assays were performed in U-bottom 384-well plates. The final assay volume was 30 μL prepared from 15 μL additions of enzyme and substrates (fluoresceinated peptide and ATP) and test compounds in assay buffer (20 mM HEPES pH 7.2, 10 mM MgCl2, 0.015% Brij 35 and 4 mM DTT). The reaction was initiated by the combination of IRAK4 with substrates and test compounds. The reaction mixture was incubated at room temperature for 60 min. and terminated by adding 45 μL of 35 mM EDTA to each sample. The reaction mixture was analyzed on the Caliper LABCHIP 3000 (Caliper, Hopkinton, MA) by electrophoretic separation of the fluorescent substrate and phosphorylated product. Inhibition data were calculated by comparison to no enzyme control reactions for 100% inhibition and vehicle-only reactions for 0% inhibition. The final concentrations of reagents in the assays are ATP, 500 μM; FL-IPTSPITTTYFFFKKK peptide 1.5 μM; IRAK4, 0.6 nM; and DMSO, 1.6%.

IC50: 1180 nM
Structure (SMILES): CC(C)Nc1c(C(=O)NC[C@@H](F)C(C)(C)O)cnc2c1Oc1cc(C#N)ccc1O2 [US12391702, Example 1]

Source: BindingDB's records for patent US12391702 (Bristol-Myers Squibb, 2025)
